pIC50: −log10 of the molar value. Activity calls are given as the source filed them. The rule behind the calls is not given here.
How the values were obtained:
[1] = system: RAW264.7; assay: Antiinflammatory activity in LPS-stimulated mouse RAW264.7 cells assessed as inhibition of beta-gal-tagged COX2 promoter activity pretreated 30 mins before LPS administration measured after 24 hrs by luciferase reporter gene assay relative to control; type: functional, cell-based
[2] = system: RAW264.7; assay: Antiinflammatory activity in LPS-stimulated mouse RAW264.7 cells assessed as inhibition of COX2 protein expression at 10 to 100 uM pretreated 30 mins before LPS administration measured after 24 hrs by Western blot analysis; type: functional, cell-based

pIC50 [1]	SMILES	inhibition [1]	inhibition [2]
5.15	C=C1C(=O)[C@@]23[C@@H]4CC5=C(C(=O)CC5(C)C)[C@@](C)(O4)[C@@H]2CC[C@@H]1[C@H]3O [CROTONKINENSIN A]	Dose-dependent effect	Active
5.26	C=C1C(=O)[C@@]23[C@@H]4C[C@H]5C(=CCC5(C)C)[C@@](C)(O4)[C@@H]2CC[C@@H]1[C@H]3O [CROTONKINENSIN B]	Dose-dependent effect	Active

Reference: ChEMBL document CHEMBL1153727, “Crotonkinensins A and B, diterpenoids from the Vietnamese medicinal plant Croton tonkinensis” (J Nat Prod, 2009)
